System: TDP1
Assay: not given
Conditions: Figure 1, berberines; cited from earlier work

With `CCCS(=O)(=O)Oc1c(OC)cc(Br)c2c1CN1CCc3cc4c(cc3C1C2)OCO4` (stereo not drawn) [Compound 2] as the compound, how does the IC50 read?
The IC50 was 2.9 µM.

Same assay, conditions: Figure 1, coumarins; cited from earlier work

Which IC50 does the source give for `COc1ccc(-c2cc(=O)oc3cc(OCCC4=CCC5CC4C5(C)C)ccc23)cc1` (stereo not drawn) [Compound 3] here?
The IC50 was 0.91 µM.

Same assay, conditions: Figure 1, isoquinolines; cited from earlier work

For `COc1cccc2c1-c1c(c3ccc([N+](=O)[O-])cc3c(=O)n1CCCN)C2=O` [Compound 5], which IC50 is on record?
The IC50 was 5.5 µM.

Same assay, conditions: Figure 1, resin acid derivatives; cited from earlier work

For `CC(C)c1ccc2c(c1)CC[C@H]1[C@](C)(CNC(=O)CC34CC5CC(CC(C5)C3)C4)CCC[C@]21C` [Compound 7], which IC50 is on record?
The IC50 was 0.19 µM.

Same assay, conditions: Figure 1, steroids; cited from earlier work

For `CO[C@@H]1CC[C@]2(C)C3C[C@H](OC)[C@@]4(C)C(CC[C@@H]4[C@H](C)CCC(=O)Nc4ccc(Br)cc4)[C@@H]3CC[C@@H]2C1` (stereo partly drawn) [Compound 4], which IC50 is on record?
The IC50 was 0.27 µM.

Same assay, conditions: Figure 1, terpenoadamantanes; cited from earlier work

With `CC(C)=CCC/C(C)=C/CSc1n[nH]c(C23CC4CC(CC(C4)C2)C3)n1` [Compound 8] as the compound, how does the IC50 read?
Its IC50 is 5.2 µM.

Same assay, conditions: Figure 1, thiazolidines; cited from earlier work

For `O=C1NC(=S)/C(=C/c2ccc(O)c(O)c2O)S1` [Compound 6], which IC50 is on record?
Its IC50 is 0.87 µM.

Molecular target: T1, Human recombinant TDP1 (Homo sapiens, UniProt Q9NUW8)
T1 construct: made in house
T1 sequence (Q9NUW8 whole entry): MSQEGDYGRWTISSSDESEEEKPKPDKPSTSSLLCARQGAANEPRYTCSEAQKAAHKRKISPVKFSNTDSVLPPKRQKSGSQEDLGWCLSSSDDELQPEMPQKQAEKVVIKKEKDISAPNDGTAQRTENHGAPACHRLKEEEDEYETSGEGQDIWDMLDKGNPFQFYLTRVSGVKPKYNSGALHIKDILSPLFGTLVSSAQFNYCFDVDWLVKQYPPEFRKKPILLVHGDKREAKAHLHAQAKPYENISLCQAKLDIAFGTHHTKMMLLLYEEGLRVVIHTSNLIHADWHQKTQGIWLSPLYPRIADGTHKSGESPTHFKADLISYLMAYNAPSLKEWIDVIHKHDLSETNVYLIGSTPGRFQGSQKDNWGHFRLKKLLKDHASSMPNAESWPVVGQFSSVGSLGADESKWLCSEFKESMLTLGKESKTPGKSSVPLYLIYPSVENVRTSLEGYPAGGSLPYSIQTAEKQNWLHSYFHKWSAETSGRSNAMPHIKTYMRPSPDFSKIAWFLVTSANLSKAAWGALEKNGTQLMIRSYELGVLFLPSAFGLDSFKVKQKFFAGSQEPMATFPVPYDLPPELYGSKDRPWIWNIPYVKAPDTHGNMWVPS
Assay: Real-time oligonucleotide biosensor assay of TDP1 activity
Assay type: biochemical
Conditions: 1.5 nM TDP1, 50 nM biosensor, 26 °C, at least three experiments
Method: The inhibiting activity of the compounds against TDP1 was investigated using a real-time oligonucleotide biosensor assay.
The biosensor (5′-[FAM] AAC GTC AGGGTC TTC C [BHQ]-3′) was synthesized in the Laboratory of Nucleic Acid Chemistry at the Institute of Chemical Biology and Fundamental Medicine (Novosibirsk, Russia) and was used for TDP1 enzyme activity real-time fluorescence detection. The reaction mixture (200 µL) contained a TDP1 reaction buffer (50 mM Tris-HCl, pH 8.0, 50 mM NaCl, and 7 mM β-mercaptoethanol), 50 nM oligonucleotide, varied concentrations of the tested compounds, and purified TDP1 in a final concentration of 1.5 nM. The recombinant TDP1 was purified to homogeneity by chromatography on Ni-chelating resin and phosphocellulose P11, as described, using plasmid pET 16B-TDP1, kindly provided by Dr. K.W. Caldecott (University of Sussex, United Kingdom).
The reaction mixtures were incubated at a constant temperature of 26 °C in a POLARstar OPTIMA fluorimeter (BMG LABTECH, GmbH, Ortenberg, Germany). Fluorescence intensity was measured (Ex485/Em520 nm) every 1 min for 10 min. The average values of the half maximal inhibitory concentration (IC50) were determined using a six-point concentration response curve and calculated using MARS Data Analysis 2.0 (BMG LABTECH). The 50% inhibitory concentration (IC50) was defined as the concentration of the compound that inhibited 50% of the enzyme activity, when compared to the untreated controls. At least three independent experiments were carried out to obtain the IC50 values.

For `CC(C)=CCC/C(C)=C/CN1C(=O)S/C(=C\c2ccc(Br)s2)C1=O` [Compound 20b, (Z)-5-((5-bromothiophen-2-yl)methylene)-3-((E)-3,7-dimethylocta-2,6-dienyl)thiazolidine-2,4-dione], which “TDP1 inhibitory activity IC50” value is on record?
Its value is “did not show affinity for the enzyme”.

For `CC1(C)[C@H]2CC=C(CCN3C(=O)S/C(=C\c4cc(Br)cs4)C3=O)[C@@H]1C2` [Compound 21d, (Z)-5-((4-bromothiophen-2-yl)methylene)-3-(2-((1R,5S)-6,6-dimethylbicyclo[3.1.1]hept-2-en-2-yl)ethyl)thiazolidine-2,4-dione], which “TDP1 inhibitory activity IC50” value is on record?
The value was “submicromolar”.

With `CC(C)=CCC/C(C)=C/CN1C(=O)S/C(=C\c2cc(Br)cs2)C1=O` [Compound 20d, (Z)-5-((4-bromothiophen-2-yl)methylene)-3-((E)-3,7-dimethylocta-2,6-dienyl)thiazolidine-2,4-dione] as the compound, how does the “TDP1 inhibitory activity IC50” value read?
Its value is “submicromolar”.

Same assay, conditions: 1.5 nM TDP1, 50 nM biosensor, 26 °C, at least three experiments; read-out: TDP1 inhibitory activity IC50

For `CC(C)=CCC/C(C)=C/CN1C(=O)S/C(=C\c2ccco2)C1=O` [Compound 20a, (Z)-3-((E)-3,7-dimethylocta-2,6-dienyl)-5-(furan-2-ylmethylene)thiazolidine-2,4-dione], which IC50 is on record?
Its IC50 is 3.4 ± 0.1 µM.

With `O=C1S/C(=C\c2cccs2)C(=O)N1Cc1ccccc1` [Compound 19c, (Z)-3-Benzyl-5-(thiophen-2-ylmethylene)thiazolidine-2,4-dione] as the compound, how does the IC50 read?
Its IC50 is > 100 µM.

For `O=C1S/C(=C\c2cc(Br)cs2)C(=O)N1Cc1ccccc1` [Compound 19d, (Z)-3-Benzyl-5-((4-bromothiophen-2-yl)methylene)thiazolidine-2,4-dione], which IC50 is on record?
The IC50 was > 100 µM.

For `Cc1ccc(/C=C2\SC(=O)NC2=O)s1` [Compound 18e, (Z)-5-((5-methylthiophen-2-yl)methylene)thiazolidine-2,4-dione], which IC50 is on record?
The IC50 was > 100 µM.

Which IC50 does the source give for `O=C1S/C(=C\c2ccco2)C(=O)N1Cc1ccccc1` [Compound 19a, (Z)-3-Benzyl-5-(furan-2-ylmethylene)thiazolidine-2,4-dione] here?
Its IC50 is > 100 µM.

With `CC(C)=CCC/C(C)=C/CN1C(=O)S/C(=C\C[C@@H]2CC=C(C)C2(C)C)C1=O` [Compound 20g] as the compound, how does the IC50 read?
The IC50 was 4.1 ± 0.1 µM.

For `CC1(C)[C@H]2CC=C(CCN3C(=O)S/C(=C\c4ccc(Br)cc4)C3=O)[C@@H]1C2` [Compound 21f, (Z)-5-(4-bromobenzylidene)-3-(2-((1R,5S)-6,6-dimethylbicyclo[3.1.1]hept-2-en-2-yl)ethyl)thiazolidine-2,4-dione], which IC50 is on record?
The IC50 was > 100 µM.

For `CC1(C)[C@H]2CC=C(CCN3C(=O)S/C(=C\c4cccs4)C3=O)[C@@H]1C2` [Compound 21c, (Z)-3-(2-((1R,5S)-6,6-dimethylbicyclo[3.1.1]hept-2-en-2-yl)ethyl)-5-(thiophen-2-ylmethylene)thiazolidine-2,4-dione], which IC50 is on record?
Its IC50 is > 100 µM.

For `Cc1ccc(/C=C2\SC(=O)N(Cc3ccccc3)C2=O)s1` [Compound 19e, (Z)-3-Benzyl-5-((5-methylthiophen-2-yl)methylene)thiazolidine-2,4-dione], which IC50 is on record?
The IC50 was > 100 µM.

For `Cc1ccc(/C=C2\SC(=O)N(CCC3=CC[C@H]4C[C@@H]3C4(C)C)C2=O)s1` [Compound 21e, (Z)-3-(2-((1R,5S)-6,6-dimethylbicyclo[3.1.1]hept-2-en-2-yl)ethyl)-5-((5-methylthiophen-2-yl)methylene)thiazolidine-2,4-dione], which IC50 is on record?
The IC50 was 2.3 ± 0.1 µM.

Which IC50 does the source give for `O=C1NC(=O)/C(=C/c2ccc(Br)cc2)S1` [Compound 18f, (Z)-5-(4-bromobenzylidene)thiazolidine-2,4-dione] here?
Its IC50 is > 100 µM.

Which IC50 does the source give for `CC(C)=CCC/C(C)=C/CN1C(=O)S/C(=C\c2ccc(Br)s2)C1=O` [Compound 20b, (Z)-5-((5-bromothiophen-2-yl)methylene)-3-((E)-3,7-dimethylocta-2,6-dienyl)thiazolidine-2,4-dione] here?
The IC50 was > 100 µM.

With `CC(C)=CCC/C(C)=C/CN1C(=O)S/C(=C\c2ccc(Br)cc2)C1=O` [Compound 20f, (Z)-5-(4-bromobenzylidene)-3-((E)-3,7-dimethylocta-2,6-dienyl)thiazolidine-2,4-dione] as the compound, how does the IC50 read?
The IC50 was > 100 µM.

With `CC1(C)[C@H]2CC=C(CCN3C(=O)S/C(=C\c4cc(Br)cs4)C3=O)[C@@H]1C2` [Compound 21d, (Z)-5-((4-bromothiophen-2-yl)methylene)-3-(2-((1R,5S)-6,6-dimethylbicyclo[3.1.1]hept-2-en-2-yl)ethyl)thiazolidine-2,4-dione] as the compound, how does the IC50 read?
The IC50 was 0.55 ± 0.07 µM.

For `O=C1S/C(=C\c2ccc(Br)s2)C(=O)N1Cc1ccccc1` [Compound 19b, (Z)-3-Benzyl-5-((5-bromothiophen-2-yl)methylene)thiazolidine-2,4-dione], which IC50 is on record?
Its IC50 is 1.9 ± 0.3 µM.

With `O=C1NC(=O)/C(=C/c2cc(Br)cs2)S1` [Compound 18d, (Z)-5-((4-bromothiophen-2-yl)methylene)thiazolidine-2,4-dione] as the compound, how does the IC50 read?
The IC50 was > 100 µM.

With `CC(C)=CCC/C(C)=C/CN1C(=O)S/C(=C\c2cc(Br)cs2)C1=O` [Compound 20d, (Z)-5-((4-bromothiophen-2-yl)methylene)-3-((E)-3,7-dimethylocta-2,6-dienyl)thiazolidine-2,4-dione] as the compound, how does the IC50 read?
Its IC50 is 0.65 ± 0.07 µM.

With `O=C1S/C(=C\c2ccc(Br)cc2)C(=O)N1Cc1ccccc1` [Compound 19f, (Z)3-benzyl-5-(4-bromobenzylidene)thiazolidine-2,4-dione] as the compound, how does the IC50 read?
Its IC50 is 1.6 ± 0.3 µM.

Which IC50 does the source give for `CC(C)=CCC/C(C)=C/CN1C(=O)S/C(=C\c2cccs2)C1=O` [Compound 20c, (Z)-3-((E)-3,7-dimethylocta-2,6-dienyl)-5-(thiophen-2-ylmethylene)thiazolidine-2,4-dione] here?
Its IC50 is > 100 µM.

With `CC(C)=CCC/C(C)=C/CN1C(=O)S/C(=C\c2ccc(C)s2)C1=O` [Compound 20e, (Z)-3-((E)-3,7-dimethylocta-2,6-dienyl)-5-((5-methylthiophen-2-yl)methylene)-thiazolidine-2,4-dione] as the compound, how does the IC50 read?
The IC50 was 2.9 ± 0.1 µM.

With `O=C1NC(=O)/C(=C/c2ccc(Br)s2)S1` [Compound 18b, (Z)-5-((5-bromothiophen-2-yl)methylene)thiazolidine-2,4-dione] as the compound, how does the IC50 read?
The IC50 was 1.1 ± 0.2 µM.

For `CC1=CCC(CC=C2SC(=O)N(CCC3=CCC4CC3C4(C)C)C2=O)C1(C)C` [Compound 21g, (Z)-3-(2-(1R,5S)-6,6-dimethylbicyclo[3.1.1]hept-2-en-2-yl)ethyl)-5-(2-((S)-2,2,3-trimethylcyclopent-3-enyl)ethylidene)thiazolidine-2,4-dione], which IC50 is on record?
The IC50 was 2.4 ± 0.1 µM.

For `O=C1NC(=O)/C(=C/c2ccco2)S1` [Compound 18a, (Z)-5-(furan-2-ylmethylene)thiazolidine-2,4-dione], which IC50 is on record?
The IC50 was > 100 µM.

With `CC1=CC[C@@H](C/C=C2\SC(=O)N(Cc3ccccc3)C2=O)C1(C)C` [Compound 19g, (S,Z)-3-Benzyl-5-(2-(2,2,3-trimethylcyclopent-3-enyl)ethylidene)thiazolidine-2,4-dione] as the compound, how does the IC50 read?
Its IC50 is 2.4 ± 1.1 µM.

With `O=C1NC(=O)/C(=C/c2cccs2)S1` [Compound 18c, (Z)-5-(thiophen-2-ylmethylene)thiazolidine-2,4-dione] as the compound, how does the IC50 read?
Its IC50 is > 100 µM.

Which IC50 does the source give for `CC1=CC[C@@H](C/C=C2\SC(=O)NC2=O)C1(C)C` [Compound 18g, (S,Z)-5-(2-(2,2,3-Trimethylcyclopent-3-enyl)ethylene)thiazolidine-2,4-dione] here?
The IC50 was > 100 µM.

Source: article PMC9964680, “Novel TDP1 Inhibitors: Disubstituted Thiazolidine-2,4-Diones Containing Monoterpene Moieties” (International Journal of Molecular Sciences, 2023)
